The values that follow come from patent US4791139A, “Diphenyl ether derivatives and their use as insecticides” (Imperial Chemical Industries PLC, priority 1986, dated 1988).

Usually mortality stands for the share of the test organisms that died.

Each structure is given as a SMILES string.

Type in all cases: in vivo
Assay [1] concerns Tetranychus urticae (spider mites - adult). Description: Contact test, spider mites - adult (TUa), French bean leaf. As to conditions: 72 h, 3 days, read-out: TUA grading of mortality. In outline:
(§1)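 Product dissolved in acetone, then diluted with water holding 0.1% by weight wetting agent to give 100 to 500 ppm preparations. Pests were held on a host plant or foodstuff, and pests and/or medium were treated. Mortality was assessed one to seven days after treatment.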

Assay [2] relates to Diabrotica balteata (rootworm larvae). Description: Residual test, rootworm larvae (DB), Filter paper/maize seed. As to conditions: 72 h, 3 days, read-out: DB grading of mortality. In outline: as §1
Assay [3] has as its system Musca domestica (houseflies - adults). Description: Knockdown test, houseflies - adults (MD/KD), Cotton wool/sugar. As to conditions: 4 hours, read-out: MD/KD grading of knockdown. In outline:
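Product was dissolved in acetone and diluted with water containing 0.1% wetting agent to 100–500 ppm. The flies and/or their food medium were treated with the preparation. Mortality was scored 1–7 days after treatment, with an additional knockdown assessment for houseflies.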

The subject of assay [4] is Chilo partellus (Maize stemborer - larvae). Description: Residual test, Maize stemborer - larvae (CP), Oilseed rape. As to conditions: 72 h, 3 days, read-out: CP grading of mortality. How it is done: The activity of the Product was determined using a variety of insect pests. The Product was used in the form of liquid preparations containing from 100 to 500 parts per million (ppm) by weight of the Product. The preparations were made by dissolving the Product in acetone and diluting the solutions with water containing 0.1% by weight of a wetting agent sold under the trade name "SYNPERONIC" NX until the liquid preparations contained the required concentration of the Product. "SYNPERONIC" is a Registered Trade Mark.
The test procedure adopted with regard to each pest was basically the same and comprised supporting a number of the pests on a medium which was usually a host plant or a foodstuff on which the pests feed, and treating either or both the pests and the medium with the preparations. The mortality of the pests was then assessed at periods usually varying from one to seven days after the treatment.
The results of the tests are given in Table III for each of the Products, at the rate in parts per million given in the second column as a grading of mortality designated as A, B or C wherein A indicates 80-100% mortality or knockdown (70-100% for Meloidogyne incognita), B indicates 50-79% mortality knockdown or knockdown (50-69% for Meloidogyne incognita) and C indicates less than 50% mortality or knockdown.
In Table III the pest organism used is designated by a letter code and the pests species, the support medium or food, and the type and duration of test is given in Table II.
(Maize stemborer - larvae)

Assay [5] has as its system Heliothis virescens (tobacco budworm - larvae). The assay can be described thus: Residual test, tobacco budworm - larvae (HV), Cotton leaf. The settings on record: 72 h, read-out: HV grading of mortality. In outline:
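Products applied as acetone solutions diluted in water with 0.1% wetting agent, at 100–500 ppm; pests on host plant or food, with pests and/or medium treated. Mortality or knockdown scored 1–7 days after treatment and graded A (80–100%), B (50–79%) or C (<50%).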

The test system of assay [6] is Musca domestica (houseflies - adults). Description: Contact test, houseflies - adults (MD), Cotton wool/sugar. As to conditions: 24 h, 1 day, read-out: MD grading of mortality. In outline: as §1
Assay [7] relates to Nilaparvata lugens (brown plant hopper - nymphs). The assay can be described thus: Contact test, brown plant hopper - nymphs (NL), Rice plant. The settings on record: 72 h, 3 days, read-out: NL grading of mortality. The method, boiled down: as §1
In a further assay the test system is Myzus persicae (aphids). The assay can be described thus: Contact test, aphids (MP), Chinese Cabbage leaf. As to conditions: 72 h, 3 days, read-out: MP grading of mortality. In outline: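 Aphids on a host plant and/or the plant itself were treated with 100–500 ppm of product, applied from acetone diluted in water containing 0.1% SYNPERONIC NX wetting agent. Mortality was scored usually one to seven days after treatment.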

For assay [8], the system named is Blattella germanica (cockroach nymphs). Description: Residual test, cockroach nymphs (BG), Plastic pot. As to conditions: 72 h, 3 days, read-out: BG grading of mortality. In outline:
as §1

In assay [9] the test system is Meloidogyne incognita (Tomato root knot eelworm - larvae). The assay can be described thus: Residual test, Tomato root knot eelworm - larvae (MI), Semi in-vitro. As to conditions: 168 h, application rate is half that recorded, 7 days, read-out: MI grading of mortality; for mortality at 125 µg/mL: rate 250 ppm; for mortality at 250 µg/mL: rate column 500 ppm.
In assay [10] the test system is Tetranychus urticae (spider mites - ova). The assay can be described thus: Contact test, spider mites - ova (TUe), French bean leaf. As to conditions: 144 h, 6 days, read-out: TUE grading of mortality. In outline:
as §1

As to `CCOc1ccc(C(=CCCc2cccc(Oc3ccccc3)c2)C(F)(F)C(F)(F)F)cc1` [Compound 10, 3-(4-ethoxyphenyl)-1,1,1,2,2-pentafluoro-6-(3-phenoxyphenyl)hex-3-ene], the mortality at 250 ppm in assay [1], in assay [2], in [4], in assay [5], in assay [6] and in assay [7] was < 50% in each case. Besides, the values for the mortality at 250 ppm (with Myzus persicae (aphids); in [8]; in assay [10]) were < 50%, 50 to 79% and < 50%, respectively. Moreover, in assay [3], the pest or weed control at 250 ppm is < 50%. In addition, the mortality at 125 µg/mL in assay [9] was < 50%.
Consider `CCOc1ccc(/C(=C\C=Cc2ccc(F)c(Oc3ccccc3)c2)C(F)(F)F)cc1` [Compound 12, 1,1,1-trifluoro-2-(4-ethoxyphenyl)-5-(4-fluoro-3-phenoxyphenyl)penta-2,4-diene], for which the mortality at 500 ppm in [1] is < 50%; in assay [2], 80 to 100%; in assay [4] it was 80 to 100%; in assay [5], 80 to 100%; in assay [6], 80 to 100%; in assay [7] it was 80 to 100%. Further, the mortality at 500 ppm in the assay on Myzus persicae (aphids) is < 50%; in assay [8], 80 to 100%; in assay [10], < 50%. The pest or weed control at 500 ppm in assay [3] lay in the range of 80 to 100%. Moreover, the mortality at 250 µg/mL in assay [9] fell in the range of 70 to 100%.
Turning to `FC(F)(F)C(=CCCc1cccc(Oc2ccccc2)c1)c1ccc(C(F)(F)F)cc1` [Compound 15, 5-(3-phenoxyphenyl)-1,1,1-trifluoro-2-(4-trifluoromethylphenyl)pent-2-ene], the mortality at 250 ppm in assay [1] is 50 to 79%; in assay [2], < 50%; in assay [4] it was 80 to 100%; in [5] it was 80 to 100%; in [6] it was < 50%; in assay [7] it was < 50%. Besides, the figures for the mortality at 250 ppm (in the assay on Myzus persicae (aphids); in [8]; in assay [10]) were < 50%, 80 to 100% and < 50%, respectively. Moreover, in [3], the pest or weed control at 250 ppm was < 50%. In assay [9], the mortality at 125 µg/mL is < 50%.
On to `CCOc1ccc(/C(=C/CCc2cccc(Oc3ccccc3)c2)C(F)(F)F)cc1` [Compound 4, Z-1,1,1-trifluoro-2-(4-ethoxyphenyl)-5-(3-phenoxyphenyl)pent-2-ene], for which the mortality at 500 ppm in assay [1] was < 50%; in assay [2], < 50%; in assay [4], 80 to 100%; in assay [5], 80 to 100%; in [6], < 50%; in assay [7], < 50%. In addition, the mortality at 500 ppm (with Myzus persicae (aphids); in [8]; in assay [10]) was < 50% each time. In [3], the pest or weed control at 500 ppm was < 50%. Moreover, the mortality at 250 µg/mL in [9] is < 50%.
Regarding `CCOc1ccc(C(CCCc2cccc(Oc3ccccc3)c2)C(F)(F)C(F)(F)F)cc1` (racemic) [Compound 11, 1,1,1,2,2-Pentafluoro-3-(4-ethoxyphenyl)-6-(3-phenoxyphenyl)hexane], the mortality at 250 ppm in assay [1], in [2], in assay [4], in [5], in assay [6] and in assay [7] was < 50% in each case. In addition, the mortality at 250 ppm (in the assay on Myzus persicae (aphids); in [8]; in assay [10]) was < 50% throughout. Moreover, in [3], the pest or weed control at 250 ppm was 80 to 100%. For the same compound, the mortality at 125 µg/mL in assay [9] was < 50%.
As for `CCOc1ccc(/C(=C\C=C/c2ccc(F)c(Oc3ccccc3)c2)C(F)(F)F)cc1` [Compound 37, 1,1,1-trifluoro-2-(4-ethoxyphenyl)-5-(4-fluoro-3-phenoxyphenyl)penta-2,4-diene], the mortality at 250 ppm in assay [1], in [2], in assay [4], in [5], in assay [6] and in assay [7] was < 50% in each case. The mortality at 250 ppm in the assay on Myzus persicae (aphids) is < 50%; in assay [8] it was 50 to 79%; in assay [10], < 50%. For the same compound, the pest or weed control at 250 ppm in assay [3] was < 50%. The mortality at 125 µg/mL in assay [9] was < 50%.
`FC(F)(F)Oc1ccc(C(=CCCc2cccc(Oc3ccccc3)c2)C(F)(F)F)cc1` [Compound 7, 5-(3-phenoxyphenyl)-2-(4-trifluoromethoxyphenyl)-1,1,1-trifluoropent-2-ene]: the mortality at 250 ppm in [1] lay within 80 to 100%; in [2], 80 to 100%; in assay [4], 80 to 100%; in assay [5], 80 to 100%; in [6], 50 to 79%; in assay [7] it was 80 to 100%. The mortality at 250 ppm (in the assay with Myzus persicae (aphids); in assay [8]; in [10]) was 80 to 100% in each case. Besides, in assay [3], the pest or weed control at 250 ppm was < 50%. For the same compound, in [9], the mortality at 125 µg/mL was < 50%.
On to `CC(C)(C)c1ccc(C(CCCc2cccc(Oc3ccccc3)c2)C(F)(F)F)cc1` (racemic) [Compound 8, 1,1,1-Trifluoro-2-[4-(2-methylprop-2-yl)phenyl]-5-(3-phenoxyphenyl)pentane], for which the mortality at 250 ppm is < 50% in assay [1]; 80 to 100% in assay [2]; 80 to 100% in assay [4]; 80 to 100% in [5]; < 50% in assay [6]; < 50% in [7]. Besides, the mortality at 250 ppm in the assay on Myzus persicae (aphids) is < 50%; in [8], 80 to 100%; in assay [10] it was < 50%. In addition, in assay [3], the pest or weed control at 250 ppm is < 50%. Besides, the mortality at 125 µg/mL in [9] was 70 to 100%.
Take `CCOc1ccc(C(CC=Cc2cccc(Oc3ccccc3)c2)C(F)(F)F)cc1` (stereo not drawn) [Compound 31, 1,1,1-trifluoro-2-(4-ethoxyphenyl)-5-(3-phenoxyphenyl)pent-4-ene]: the mortality at 250 ppm was < 50% in assay [1]; 80 to 100% in assay [2]; 80 to 100% in assay [4]; 80 to 100% in [5]; 80 to 100% in [6]; 80 to 100% in assay [7]. Besides, the mortality at 250 ppm is 80 to 100% in the assay on Myzus persicae (aphids), 80 to 100% in [8] and < 50% in [10]. In assay [3], the pest or weed control at 250 ppm fell in the range of 80 to 100%. Further, the mortality at 125 µg/mL in [9] is < 50%.
